Laboratory results as given in patent US20060035810A1, “Regulation of ins(3456)p4 signalling by a reversible kinase phosphatase and methods and compositions related thereto” (priority 2002, published 2006).

What was measured:
[1] = system: calcium-activated Cl− channels; assay: Whole-cell Cl− current in CFPAC-1 cells (bio-assay for Ins(3,4,5,6)P4); type: cell-based, human; settings: 10 μM in CFPAC-1 cells; control 54±3 pA/pF; +40 mV, free [Ca2+] 0.5 μM
Procedure: T84 cells were detached by incubation with 0.25% (w/v) trypsin/0.02% (w/v) EDTA for 5-6 min. After trypsin removal, 200 μl aliquots (1.5×10^6/ml) were seeded into the circular wells (area=0.45 cm^2) of permeable supports, made by gluing (Silastic® sealant, Dow Corning, Midland, Mich.) a Sylgard® ring to filters composed of mixed cellulose esters (Millipore Corp., Bedford, Mass.). Seeded supports were floated on culture medium and incubated for 11-14 days before being mounted in modified Snapwell holders in Using chambers (EasyMount System, Physiologics Instruments, San Diego, Calif.). Transcellular Cl^− flux was then recorded as the short-circuit current as previously described. The resistance of the monolayers were (vector) 346±44 ohms/cm^2 (mean±se, n=12) and (kinase) 354±62 ohms/cm^2 (mean±se, n=12). Whole-cell Cl^− currents in CFPAC—I cells were measured at +40 mV as previously described using an intracellular Ca^2+-BAPTA buffer to clamp free [Ca^2+] to 0.5 μM [8]. One possibility is that Ins(3,4,5,6)P4 originates by phosphorylation of an InsP3 precursor. […] Control whole-cell Cl^− current (54±3 pA/pF, n—17) was reduced to 24±3 pA/pF (n=7) by 10 μM Ins(3,4,5,6)P4.

[2] = system: calcium-activated Cl− channels; settings: read-out: sensitivity of calcium-activated Cl− channels to Ins(3,4,5,6)P4 (IC50); cited from earlier work
[3] = molecular target: T1, Ins(1,3,4,5,6)P5 1-phosphatase activity of Ins(3,4,5,6)P4 kinase (Homo sapiens, UniProt Q13572); assay: Inositol phosphate phosphatase activity assay with ADP (HPLC); type: biochemical
T1 construct: made in house; host or cells: E. coli
T1 sequence (Q13572 1-414): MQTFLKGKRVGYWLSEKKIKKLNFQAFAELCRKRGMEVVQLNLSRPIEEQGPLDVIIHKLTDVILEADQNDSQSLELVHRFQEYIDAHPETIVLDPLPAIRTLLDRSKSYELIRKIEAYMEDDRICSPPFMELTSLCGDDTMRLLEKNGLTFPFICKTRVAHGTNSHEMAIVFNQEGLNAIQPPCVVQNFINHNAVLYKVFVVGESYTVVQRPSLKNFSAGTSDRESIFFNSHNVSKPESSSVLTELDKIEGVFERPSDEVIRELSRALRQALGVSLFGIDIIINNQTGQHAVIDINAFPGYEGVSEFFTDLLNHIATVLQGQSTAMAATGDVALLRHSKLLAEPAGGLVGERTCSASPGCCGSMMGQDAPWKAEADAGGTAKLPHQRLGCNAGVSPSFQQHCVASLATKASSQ
Procedure: Ins(3,4,5,6)P4 kinase (0.4 μg) was incubated for 30 min in 100 μl phosphatase assay buffer (see Methods) either with (closed circles) or without (open circles) 5 mM ADP plus trace-amounts of either [^3H]Ins(1,3,4,5,6)P5 (panel A) [^3H]Ins(1,3,4,6)P4 (panel B), or [^3H]Ins(1,3,4,5)P4 (panel C). Samples were analyzed by HPLC (see Methods). The elution positions of Ins(1,3,4)P3 and Ins(3,4,5,6)P4 were verified with genuine standards. The elution positions of Ins(1,3,4,6)P4 (106 min, panel B) and of Ins(1,3,4,5)P4 (110 min, panel C) exclude these as products of InsP5 dephosphorylation (panel A).
Additional incubations were performed with 5 μM [^3H]Ins(1,3,4)P3 (approx. 1200 d.p.m.) plus either no Ins(1,3,4,5,6)P5 (open circles) or 5 μM non-radiolabeled Ins(1,3,4,5,6)P5 (closed circles); these reactions were assayed by HPLC (Synchropak Q100 column) and the InsP4 region of the chromatogram is shown in Panel B.
Inositol phosphate phosphatase activity was assayed in buffer containing 100 mM KCl, 20 mM HEPES pH 7.2, 5 mM ADP, 6 mM MgSO4, 0.3 mg/ml bovine serum albumin. Assays were acid-quenched, neutralized and analyzed by HPLC using a Synchropak Q100 columm (Caffrey et al., “Expanding Coincident Signaling by PTEN through its Inositol 1,3,4,5,6-Pentakisphosphate 3-phosphatase Activity,” FEBS Lett 499: 6-10 (2001)); 1 ml fractions were collected for 70 min., followed by 0.5 ml fractions. Inositol phosphate kinase activity was assayed in buffer containing 100 mM KCl, 20 mM HEPES pH 7.2, 5 mM ATP, 10 mM phosphocreatine, 6 mM MgSO4, 10 μg/ml creatine phosphokinase (Calbiochem), 0.3 mg/ml bovine serum albumin. Some assays were acid-quenched and analyzed by HPLC using a Synchropak Q100 column. Other reactions were heat-inactivated (95° C., 3 min) and analyzed by a metal dye detection, HPLC method (Mayr, “A novel metal-dye detection sysytem permits picomolar-range h.p.l.c. analysis of inositol polyphosphates from non-radioactively labelled cell or tissue specimens,” Biochem J 254: 585-591 (1988); Adelt et al., “Enzyme-assisted total synthesis of the optical antipodes D-myo-inositol 3,4,5-trisphosphate and D-myo-inositol 1,5,6-trisphosphate: aspects of their structure-activity relationship to biologically active inositol phosphates,” J Med Chem 42: 1262-1273 (1999)).

O=P(O)(O)OC1C(O)C(O)C(OP(=O)(O)O)C(OP(=O)(O)O)C1OP(=O)(O)O (stereo not shown) [Ins(3,4,5,6)P4, inositol 3,4,5,6-tetrakisphosphate]
whole-cell Cl− current [1]: 24±3 pA/pF | IC50 [2]: 3 µM

O=P(O)(O)OC1[C@@H](OP(=O)(O)O)[C@H](OP(=O)(O)O)C(O)[C@H](OP(=O)(O)O)[C@H]1OP(=O)(O)O (stereo partly shown) [Ins(1,3,4,5,6)P5, inositol 1,3,4,5,6-pentakisphosphate]
product of ADP-dependent dephosphorylation ([3]; 5 mM ADP, trace amounts of substrate): dephosphorylated to an [^3H]InsP4 peak co-eluting upon HPLC with a standard of Ins(3,4,5,6)P4 | Vmax for dephosphorylation ([3]; with Ins(1,3,4)P3 present): 82 pmol/μg protein/min
